Source: PubChem BioAssay (NCI)
Several values for one entry are separate records, joined by “and”; a condition that tells them apart may be missing. Equal values may be shown once.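 96-well plates; 48 h exposure; 5 concentrations. Endpoints by linear interpolation between flanking doses. Not reached: highest tested concentration assigned. GI50: concentration for 50% inhibition of growth. TGI is the concentration that stops growth completely.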

What was measured:
Assay in all cases: inhibition of tumour cell growth, NCI panel, 48 h
SF-268 CNS = system: SF-268 CNS
HCT-116 colon = system: HCT-116 colon
SK-OV-3 ovarian = system: SK-OV-3 ovarian
OVCAR-3 ovarian = system: OVCAR-3 ovarian
ACHN renal = system: ACHN renal
UACC-62 melanoma = system: UACC-62 melanoma
786-0 renal = system: 786-0 renal
HS 578T breast = system: HS 578T breast
MDA-MB-435 = system: MDA-MB-435
T-47D breast = system: T-47D breast

| SMILES | GI50 (SF-268 CNS) [µM] | TGI (SF-268 CNS) | TGI (HCT-116 colon) [µM] | GI50 (SK-OV-3 ovarian) [µM] | TGI (SK-OV-3 ovarian) | GI50 (OVCAR-3 ovarian) [µM] | TGI (OVCAR-3 ovarian) | TGI (ACHN renal) [µM] | TGI (UACC-62 melanoma) | TGI (786-0 renal) [µM] | TGI (HS 578T breast) [µM] | TGI (MDA-MB-435) [µM] | GI50 (HS 578T breast) [µM] | GI50 (ACHN renal) [µM] | GI50 (MDA-MB-435) [µM] | GI50 (UACC-62 melanoma) [µM] | TGI (T-47D breast) [µM] | GI50 (HCT-116 colon) [µM] | GI50 (T-47D breast) [µM] |
| --- | --- | --- | --- | --- | --- | --- | --- | --- | --- | --- | --- | --- | --- | --- | --- | --- | --- | --- | --- |
| Cc1c2ccnc(C(N)=O)c2c(C)c2c1[nH]c1ccccc12 | 6.19 | 44.6 µM and 27.8 µM | 17.4 | 14.1 | 23.9 µM and 34.3 µM | 5.94 | 34.8 µM and 32.1 µM | 13.8 | 15.8 µM and 20.4 µM | 23.3 | – | – | – | – | – | – | – | – | – |
| Cc1ccccc1-c1nc2c(N)nc(N)nc2nc1N | – | > 100 µM | > 100 | – | > 100 µM | – | > 100 µM | > 100 | > 100 µM | > 100 | > 100 | > 100 | – | – | – | – | – | – | – |
| CSCC[C@@H](NC(=O)[C@H](CC(C)C)NC(=O)C(Cc1cnc[nH]1)NC(=O)CNC(=O)[C@@H](NC(=O)[C@H](C)NC(=O)[C@H](Cc1c[nH]c2ccccc12)NC(=O)[C@H](CCC(N)=O)NC(=O)[C@@H](N)CC(N)=O)C(C)C)C(N)=O (some centres undefined) | – | > 100 µM | > 100 | – | > 100 µM | – | > 100 µM | – | > 100 µM | – | – | – | – | – | – | – | – | – | – |
| c1ccc(-c2c(-c3ccccc3)[n+](Cc3ccc4ccccc4c3)c(-c3ccc(-c4nc5ccccc5s4)cc3)n2Cc2ccc3ccccc3c2)cc1 | – | – | – | – | – | 0.0814 | 0.626 µM | 0.378 | 1.25 µM | – | 1.41 | 0.557 | 0.296 | 0.178 | 0.209 | 0.236 | – | – | – |
| CC1CC(N2CCOCC2)=Nc2ccccc2N1C (centres undefined) | – | > 100 µM | > 100 | – | > 100 µM | – | > 100 µM | > 100 | > 100 µM | > 100 | > 100 | > 100 | – | – | – | – | – | – | – |
| COC(=O)CC(=O)OSc1ccccc1 | – | – | 26.9 | – | 46 µM | – | 36.4 µM | 56.5 | 29.5 µM | – | – | – | – | – | – | – | – | – | – |
| CC(C)C(Br)CCC1=CCC(Br)(Br)C1 (centres undefined) | – | 31.2 µM | 27.9 | – | 28.1 µM | – | 25.7 µM | 30.6 | 19.9 µM | 29.6 | 47.4 | 22.5 | – | – | – | – | – | – | – |
| CN(C)C(=O)C(F)(F)C(c1ccc(F)cc1)C1C(=O)N(C)C(=O)N(C)C1=O (centres undefined) | – | > 100 µM | > 100 | – | > 100 µM | – | > 100 µM | > 100 | > 100 µM | > 100 | – | > 100 | – | – | – | – | > 100 | – | – |
| Cc1c(N2CCOCC2)nc2ccc(Cl)cc2c1-c1ccccc1 | – | > 100 µM | > 100 | – | > 100 µM | – | > 100 µM | > 100 | > 100 µM | > 100 | – | – | – | – | – | – | – | – | – |
| c1c[nH]c(-c2cccc3nsnc23)c1 | – | > 100 µM | > 100 | – | > 100 µM | – | – | > 100 | > 100 µM | > 100 | – | > 100 | – | – | – | – | > 100 | – | – |
| Cc1cc([N+](=O)[O-])c(C)c2c1[nH]c1ccc(Cl)cc12 | – | > 100 µM | > 100 | – | – | – | > 100 µM | > 100 | – | > 100 | – | – | – | – | – | – | – | – | – |
| NS(=O)(=O)c1nnc(NC(=O)N(c2ccccc2)c2ccccc2)s1 | – | > 100 µM | 83.8 | – | > 100 µM | – | 69.7 µM | – | 59.1 µM | > 100 | 73 | 68.8 | – | – | – | – | – | – | – |
| O=C(O)c1nc2ccc(C(F)(F)F)cc2[nH]c1=O | – | > 100 µM | > 100 | – | > 100 µM | – | > 100 µM | > 100 | > 100 µM | – | > 100 | > 100 | – | – | – | – | > 100 | – | – |
| COc1cc2nc(-c3ccc(Cl)cc3)cc(OCCCN3CCOCC3)c2cc1OC | – | – | > 100 | 3 | > 100 µM | – | – | > 100 | 6.35 µM | – | – | – | – | 3.64 | – | 2.26 | > 100 | 1.59 | 1.96 |
| COC(=O)CNC(=O)C(CSC(=O)OCC1c2ccccc2-c2ccccc21)NC(=O)CCC(NC(=O)OCC1c2ccccc2-c2ccccc21)C(=O)OC (centres undefined) | – | 51.9 µM | 32.5 | – | 74.6 µM | – | 32 µM | > 100 | – | 26.6 | > 100 | 67.4 | – | – | – | – | – | – | – |
| CO/N=C1\CC(NC(=O)C(F)(F)F)c2ccsc21 (centres undefined) | – | > 100 µM | > 100 | – | > 100 µM | – | > 100 µM | – | > 100 µM | – | > 100 | > 100 | – | – | – | – | > 100 | – | – |
| COC(=O)/C=C(\C)CC/C=C(\C)CCC1OC1(C)C (centres undefined) | – | – | 24.3 | – | > 75 µM | – | 21.8 µM | 23.3 | 19.8 µM | 23.6 | 35.2 | – | – | – | – | – | – | – | – |
| COc1ccc(CNc2cnc3ccc(N)cc3n2)cc1 | – | > 100 µM | 11.7 | – | – | – | > 100 µM | > 100 | – | > 100 | – | – | – | – | – | – | – | – | – |
| COc1cc2ccc3c4cc(OC)c(OC)cc4c[n+](C)c3c2cc1O | – | 7.23 µM | > 100 | – | > 100 µM | – | > 100 µM | > 76.6 | > 100 µM | > 100 | – | – | – | – | – | – | – | – | – |
| CN(C)CCNC(=O)c1cccc2c1Nc1ccccc1S2 | – | 31.7 µM | 25 | – | 30.5 µM | – | 28 µM | – | 28.4 µM | – | – | – | – | – | – | – | – | – | – |
| CC(=O)NNc1nc(C)c(C(=O)NNC(=O)C(=O)Nc2ccc([N+](=O)[O-])cc2[N+](=O)[O-])s1 | – | > 100 µM | > 100 | – | > 100 µM | – | – | > 100 | > 100 µM | – | – | – | – | – | – | – | – | – | – |
| CCOC(=O)C1C(c2ccc(Cl)cc2Cl)NC(c2ccc(C)cc2)C(C(=O)OC)S1(=O)=O (centres undefined) | – | > 100 µM | – | – | > 100 µM | – | > 100 µM | > 100 | > 100 µM | > 100 | – | – | – | – | – | – | – | – | – |
| COc1cccc(C2c3cc4c(cc3OC(O)C2C)OCO4)c1OC (centres undefined) | – | 41.7 µM | 12.3 | – | – | – | 17.9 µM | 30.8 | 44.7 µM | 19.2 | 32.8 | 33.9 | – | – | – | – | 40.7 | – | – |
| CCOC(=O)/C=C/c1nc(C#N)c(N)o1 | – | > 100 µM | > 100 | – | > 100 µM | – | – | > 100 | > 100 µM | > 100 | > 100 | > 100 | – | – | – | – | – | – | – |
| O=C1C=CC2(O[C@H](c3ccccc3)[C@@H](c3ccccc3)O2)[C@H](Sc2ccccc2O)C1 | – | 0.964 µM | 0.309 | – | 11.8 µM | – | 1.51 µM | 1.07 | 2.13 µM | 0.356 | 7.88 | 0.982 | – | – | – | – | – | – | – |
| CN(/N=C1\C(=O)Nc2ccccc21)c1ccccc1 | – | > 100 µM | > 100 | – | > 100 µM | – | > 100 µM | > 100 | > 100 µM | – | > 100 | > 100 | – | – | – | – | > 100 | – | – |
